The target of series [1] is T1, VvSWEET7 (Vitis vinifera, UniProt A0ACM8QLM4).
T1 construct: gene VIT_02s0025g02080; full-length cDNA in pYES-DEST52 (GAL1 promoter), expressed in hxt-null S. cerevisiae EBY.VW4000
T1 sequence (A0ACM8QLM4 1-260): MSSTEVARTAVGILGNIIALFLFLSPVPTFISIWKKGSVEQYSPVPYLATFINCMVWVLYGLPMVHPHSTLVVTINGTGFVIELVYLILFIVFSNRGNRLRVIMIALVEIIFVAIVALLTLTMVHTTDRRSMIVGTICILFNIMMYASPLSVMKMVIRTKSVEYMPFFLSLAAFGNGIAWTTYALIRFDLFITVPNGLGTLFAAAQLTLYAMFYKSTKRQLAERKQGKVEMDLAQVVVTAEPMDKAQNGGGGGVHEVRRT
Description: inhibition of D-[…]-glucose uptake in yeast EBY.VW4000. In kind it is cell-based. To be noted: read-out: % inhibition at 500 mM.

Substrate in series [2]: OC[C@H]1O[C@@](CO)(O[C@H]2O[C@H](CO)[C@@H](O)[C@H](O)[C@H]2O)[C@@H](O)[C@@H]1O
Description: initial uptake of radiolabelled sugar in yeast EBY.VW4000, Michaelis-Menten. In kind it is cell-based, Vitis vinifera. The conditions noted are these: labelled compound, 7.5-125 mM, KH2PO4 pH 5.0, 30 °C, 3 min.

Here are results for five molecules from publication PMC6996298 (Frontiers in Plant Science, 2020).

For orientation: inhibition means how much of the control response was suppressed. Regarding `OCC1(O)OC[C@@H](O)[C@@H](O)[C@@H]1O` (some centres unmarked) [fructose], in series [1], the inhibition at 500000 µM amounted to 79%. The same measure, in the same setting: under `OC[C@H]1OC(O)[C@H](O)[C@@H](O)[C@H]1O` (some centres unmarked) [galactose] stands 56%. The same measure, in the same setting: under `OC[C@@H](O)[C@@H](O)[C@H](O)[C@H](O)CO` [mannitol] stands 29%; under `OC[C@@H](O)[C@@H](O)[C@H](O)[C@@H](O)CO` [sorbitol], 38%.

B1: VvSWEET7 (Vitis vinifera) (protein)
chain: MSSTEVARTAVGILGNIIALFLFLSPVPTFISIWKKGSVEQYSPVPYLATFINCMVWVLYGLPMVHPHSTLVVTINGTGFVIELVYLILFIVFSNRGNRLRVIMIALVEIIFVAIVALLTLTMVHTTDRRSMIVGTICILFNIMMYASPLSVMKMVIRTKSVEYMPFFLSLAAFGNGIAWTTYALIRFDLFITVPNGLGTLFAAAQLTLYAMFYKSTKRQLAERKQGKVEMDLAQVVVTAEPMDKAQNGGGGGVHEVRRT
notes: full-length cDNA in pYES-DEST52 (GAL1 promoter), expressed in hxt-null S. cerevisiae EBY.VW4000
A word on the Km: it is the substrate concentration at which the rate is half of its maximum. For B1, the Km in series [2] stood at 40.08 mM.
